Like-named read-outs stand apart in the source and are kept apart here.

Consider 18 compounds from PMC11119685, “Undescribed Cyclohexene and Benzofuran Alkenyl Derivatives from Choerospondias axillaris, a Potential Hypoglycemic Fruit” (Foods, 2024).

The target in this assay is α-glucosidase (Saccharomyces cerevisiae, UniProt P53341). The assay can be described thus: α-Glucosidase inhibitory assay (pNPG substrate, absorbance at 405 nm). The assay is classed as biochemical. As to conditions: for inhibition at 50 µM: read-out: Inhibition Rate (in vitro α-glucosidase inhibitory activity); for α-glucosidase inhibitory activity, in words: qualitative statement, tested at 50 μM. Here is the method: The α-glucosidase inhibitory activity was evaluated according to a previous method. In brief, α-glucosidase solution (0.025 U/mL, dissolved in 0.1 M phosphate-buffered saline (PBS) solution with a pH of 6.8), was mixed with 50 μM inhibitor and incubated at 37 °C for 10 min. pNPG solution (1 μM, dissolved in 0.1 M PBS solution) was added to the mixed solution and incubated at 37 °C for 40 min. Sodium carbonate (1 M) solution was added to terminate the reaction. […] The absorbance was recorded at 405 nm usin a microplate reader. The α-glucosidase inhibitory rate was calculated as follows:
Inhibitory rate% = [(A0 − A1)/A0)] × 100%, where:
A0 and A1 represent the absorbance of the blank group (containing enzyme, pNPG, PBS buffer, and DMSO), the sample group (containing enzyme, pNPG, PBS buffer, and samples), respectively. IC50 values were computed based on the Reed–Muench method.
All data were analyzed and presented as mean values ± SD from three independent assays (n = 3). The IC50 values were determined by Graph Pad Prism version 5 (University of California, San Diego, CA, USA).

The mark [1] stands for this setting: at a concentration of 50 μM, means ± SD (n = 3).

Sequence of α-glucosidase (P53341 whole entry): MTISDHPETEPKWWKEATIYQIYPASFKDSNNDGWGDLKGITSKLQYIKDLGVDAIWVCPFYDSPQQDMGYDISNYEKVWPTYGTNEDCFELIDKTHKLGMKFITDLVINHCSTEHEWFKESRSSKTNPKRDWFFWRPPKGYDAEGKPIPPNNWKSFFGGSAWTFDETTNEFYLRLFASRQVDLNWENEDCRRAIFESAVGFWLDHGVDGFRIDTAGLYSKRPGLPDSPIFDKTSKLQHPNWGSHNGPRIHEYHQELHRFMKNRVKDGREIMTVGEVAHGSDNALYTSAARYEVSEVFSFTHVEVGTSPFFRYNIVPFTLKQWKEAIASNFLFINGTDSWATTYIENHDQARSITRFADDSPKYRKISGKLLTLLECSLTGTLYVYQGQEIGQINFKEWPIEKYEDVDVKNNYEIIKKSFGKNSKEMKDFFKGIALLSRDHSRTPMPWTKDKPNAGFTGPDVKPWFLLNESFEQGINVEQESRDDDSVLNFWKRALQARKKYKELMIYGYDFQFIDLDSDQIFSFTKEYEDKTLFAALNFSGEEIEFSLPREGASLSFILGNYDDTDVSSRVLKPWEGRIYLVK

As usually defined, the inhibition is the change of the read-out against control, counted positive when it falls. Regarding `CCCCC=CCCCCCCCCCC1(O)CC(O)CCC1O` [Compound 1, (1S,2R,4S)-2-[10′(Z)-pentadecenyl]-cyclohexane-1,2,4-triol], the inhibition at 50 µM under setting [1] was -8.1 ± 2.4%.

Turning to `CCCCC=CCCCCCCCCCCCC1(O)CC(O)C=CC1O` [Compound 2, (1S,2R,4S)-2-[12′(Z)-heptadecenyl]-cyclohex-5-en-1,2,4-triol], under setting [1], the inhibition at 50 µM is -12.4 ± 0.66%.

Turning to `CCCCC=CCCCCCCCCCCCCCC1(O)CC(O)C=CC1O` [Compound 3, (1S,2R,4S)-2-[14′(Z)-nonadecenyl]-cyclohex-5-en-1,2,4-triol], the inhibition at 50 µM under setting [1] is -13.6 ± 1.7%.

With `CCCCC=CCCCCCCCCCC(O)CC1=CC(=O)CCC1O` [Compound 4, (4R,2′R)-dihydroxy-3-[12′(Z)-heptadecenyl]-2-cyclohexenone], the inhibition at 50 µM under setting [1] is 11.1 ± 1.1%.

Consider `CCCCC=CCCCCCCCCCC(O)CC1=CC(=O)CC(O)C1O` [Compound 5, (4S,5S,2′R)-trihydroxy-3-[12′(Z)-heptadecenyl]-2-cyclohexenone], for which, under setting [1], the inhibition at 50 µM was -11.2 ± 0.94%.

Take `CCCC/C=C\CCCCCCCCCc1cc2cc(O)ccc2o1` [Compound 6, 2-[10′(Z)-pentadecenyl]-benzofuran-5-ol]: the inhibition at 50 µM under setting [1] came out at 97.7 ± 0.19%.

Turning to `CCCC/C=C\CCCCCCCc1cc2cc(O)ccc2o1` [Compound 7, 2-[8′(Z)-tridecenyl]-benzofuran-5-ol], the inhibition at 50 µM under setting [1] worked out at 96.7 ± 0.51%.

For `CCCC/C=C\CCCCCCCCCCCc1cc2cc(O)ccc2o1` [Compound 8, choerosponol A], the inhibition at 50 µM under setting [1] came to 98.7 ± 0.2%.

As for `Oc1cc(O)c2c(c1)O[C@H](c1ccc(O)c(O)c1)[C@@H](O)C2` [Compound 9, catechin], the “α-glucosidase inhibitory activity, in words” value is on record as “notable α-glucosidase inhibition”. Also, the inhibition at 50 µM under setting [1] came out at 61.1 ± 1.6%.

`O=C1c2c(O)cc(O)cc2O[C@H](c2ccc(O)c(O)c2)[C@H]1O` [Compound 10, dihydroquercetin]: the “α-glucosidase inhibitory activity, in words” value is given as “comparable α-glucosidase inhibitory” and the inhibition at 50 µM turned out to be 36.4 ± 0.72%.

Consider `O=C1c2c(O)cc(O)cc2O[C@H](c2ccc(O)cc2)[C@H]1O` [Compound 11, dihydrokaempferol], for which the “α-glucosidase inhibitory activity, in words” value is “comparable α-glucosidase inhibitory”. Under setting [1], the inhibition at 50 µM came to 43.8 ± 1.3%.

Regarding `O=C1C[C@@H](c2ccc(O)c(O)c2)Oc2cc(O)cc(O)c21` [Compound 12, eriodictyol], the inhibition at 50 µM under setting [1] came to 66.6 ± 0.92%.

Turning to `O=C1C[C@@H](c2ccc(O)cc2)Oc2cc(O)cc(O)c21` [Compound 13, naringenin], the inhibition at 50 µM was 65.1 ± 2%.

Turning to `C[C@@H]1O[C@@H](Oc2c(-c3ccc(O)c(O)c3)oc3cc(O)cc(O)c3c2=O)[C@H](O)[C@H](O)[C@H]1O` [Compound 14, quercetin-3-O-α-L-rhamnoside], the “α-glucosidase inhibitory activity, in words” value was “comparable α-glucosidase inhibitory” and the inhibition at 50 µM turned out to be 26.2 ± 1.3%.

Regarding `COc1cc([C@H]2c3cc(O)c(OC)cc3C[C@@H](CO)[C@@H]2CO)ccc1O` [Compound 15, (+)-isolariciresinol], the “α-glucosidase inhibitory activity, in words” value is reported as “weak inhibitory activity”. The inhibition at 50 µM under setting [1] stood at 16.6 ± 0.57%.

As to `COc1cc([C@@H]2c3c(cc(OC)c(O)c3OC)C[C@H](CO)[C@H]2CO)cc(OC)c1O` [Compound 16, (−)-lyoniresinol], the “α-glucosidase inhibitory activity, in words” value is “weak inhibitory activity”. The inhibition at 50 µM under setting [1] came to 7.5 ± 1.4%.

Take `COc1cc(C[C@@H](CO)[C@H](CO)Cc2ccc(O)c(OC)c2)ccc1O` [Compound 17, (−)-secoisolariciresinol]: the “α-glucosidase inhibitory activity, in words” value is recorded as “weak inhibitory activity”. Moreover, the inhibition at 50 µM under setting [1] was found to be 37.6 ± 0.12%.

For `COc1cc(C2OCC3C(c4cc(OC)c(O)c(OC)c4)OCC23)cc(OC)c1O` (centres unmarked) [Compound 18, lirioresinol], the “α-glucosidase inhibitory activity, in words” value was “weak inhibitory activity”. Moreover, the inhibition at 50 µM under setting [1] is 4.8 ± 0.38%.
